The term IC50 denotes the midpoint of a concentration-inhibition curve. A high value points to weaker potency.

Holding throughout (format): biochemical
The target of test [1] is dipeptidyl peptidase 7 (DPP 7) (Homo sapiens, UniProt Q9UHL4). The test is described as follows: DPP 7 activity screening. As to conditions: N.I. = No Inhibition. The gist of the method:
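Sample dissolved in DMSO, final DMSO kept at a level not affecting activity; tested at a single concentration from preliminary screening (e.g. 20 μg/mL). Dose-response data fitted to sigmoidal variable-slope model with bottom and top fixed at 0 and 100.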

For the next test, the target named is T1, FAP (Homo sapiens, UniProt Q12884).
T1 sequence (Q12884 1-760): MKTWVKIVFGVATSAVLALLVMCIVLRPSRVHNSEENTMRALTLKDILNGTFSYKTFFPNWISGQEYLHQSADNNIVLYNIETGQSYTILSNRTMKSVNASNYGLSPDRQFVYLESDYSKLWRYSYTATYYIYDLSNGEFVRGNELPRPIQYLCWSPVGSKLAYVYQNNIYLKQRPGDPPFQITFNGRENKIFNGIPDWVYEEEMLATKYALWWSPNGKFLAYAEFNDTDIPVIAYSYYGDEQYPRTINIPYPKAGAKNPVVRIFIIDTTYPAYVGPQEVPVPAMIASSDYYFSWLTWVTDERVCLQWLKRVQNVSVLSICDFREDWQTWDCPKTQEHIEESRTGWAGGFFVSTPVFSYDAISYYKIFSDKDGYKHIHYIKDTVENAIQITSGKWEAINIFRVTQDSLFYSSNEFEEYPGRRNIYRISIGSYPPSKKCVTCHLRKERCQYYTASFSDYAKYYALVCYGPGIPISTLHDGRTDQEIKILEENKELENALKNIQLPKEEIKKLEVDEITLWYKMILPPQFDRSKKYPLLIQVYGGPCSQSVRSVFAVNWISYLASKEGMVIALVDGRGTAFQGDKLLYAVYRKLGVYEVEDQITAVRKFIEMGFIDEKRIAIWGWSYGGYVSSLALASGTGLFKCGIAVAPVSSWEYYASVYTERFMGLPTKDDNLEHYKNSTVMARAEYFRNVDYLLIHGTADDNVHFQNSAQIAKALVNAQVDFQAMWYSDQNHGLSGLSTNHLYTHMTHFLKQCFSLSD
The test is described as follows: FAP inhibition (Table 1). As to conditions: N.I. = No Inhibition.

For a further test, the target named is T2, human DPP IV (Homo sapiens, UniProt P27487).
T2 construct: extracellular fragment of protease DPP IV (aa29-766); made in house; host or cells: baculovirus expression system Bac-to-Bac
T2 sequence (P27487 29-766): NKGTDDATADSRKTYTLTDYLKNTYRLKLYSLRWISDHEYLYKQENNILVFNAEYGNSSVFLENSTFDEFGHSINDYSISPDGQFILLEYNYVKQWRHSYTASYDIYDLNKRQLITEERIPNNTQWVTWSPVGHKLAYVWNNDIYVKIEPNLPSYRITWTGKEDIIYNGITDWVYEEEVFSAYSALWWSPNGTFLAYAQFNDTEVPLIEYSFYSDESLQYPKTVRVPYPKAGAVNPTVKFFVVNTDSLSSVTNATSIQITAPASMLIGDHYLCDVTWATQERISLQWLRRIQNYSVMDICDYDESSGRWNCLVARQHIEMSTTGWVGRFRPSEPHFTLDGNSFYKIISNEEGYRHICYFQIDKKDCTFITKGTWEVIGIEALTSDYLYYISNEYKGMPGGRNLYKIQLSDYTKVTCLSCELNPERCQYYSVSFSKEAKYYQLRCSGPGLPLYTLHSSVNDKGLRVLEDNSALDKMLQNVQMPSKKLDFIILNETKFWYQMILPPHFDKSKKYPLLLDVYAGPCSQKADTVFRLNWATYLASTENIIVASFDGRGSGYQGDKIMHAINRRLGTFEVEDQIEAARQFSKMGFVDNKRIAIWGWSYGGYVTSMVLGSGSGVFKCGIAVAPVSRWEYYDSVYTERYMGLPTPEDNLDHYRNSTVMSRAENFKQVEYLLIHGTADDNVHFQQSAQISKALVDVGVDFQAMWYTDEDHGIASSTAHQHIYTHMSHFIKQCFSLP
The test is described as follows: DPP IV activity screening (Ala-Pro-AMC fluorescence). The gist of the method: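 DPP IV activity is taken as the linear rate of fluorescence change at 460 nm. Samples are dissolved in DMSO and screened at a single concentration (e.g. 20 μg/mL). Dose-response data are fit to a variable-slope sigmoidal model with bottom and top fixed at 0 and 100.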

In the next test the target is T3, human DPP 8 (Homo sapiens, UniProt Q6V1X1).
T3 construct: made in house; host or cells: insect cells, baculovirus Bac-to-Bac
T3 sequence (Q6V1X1 whole entry): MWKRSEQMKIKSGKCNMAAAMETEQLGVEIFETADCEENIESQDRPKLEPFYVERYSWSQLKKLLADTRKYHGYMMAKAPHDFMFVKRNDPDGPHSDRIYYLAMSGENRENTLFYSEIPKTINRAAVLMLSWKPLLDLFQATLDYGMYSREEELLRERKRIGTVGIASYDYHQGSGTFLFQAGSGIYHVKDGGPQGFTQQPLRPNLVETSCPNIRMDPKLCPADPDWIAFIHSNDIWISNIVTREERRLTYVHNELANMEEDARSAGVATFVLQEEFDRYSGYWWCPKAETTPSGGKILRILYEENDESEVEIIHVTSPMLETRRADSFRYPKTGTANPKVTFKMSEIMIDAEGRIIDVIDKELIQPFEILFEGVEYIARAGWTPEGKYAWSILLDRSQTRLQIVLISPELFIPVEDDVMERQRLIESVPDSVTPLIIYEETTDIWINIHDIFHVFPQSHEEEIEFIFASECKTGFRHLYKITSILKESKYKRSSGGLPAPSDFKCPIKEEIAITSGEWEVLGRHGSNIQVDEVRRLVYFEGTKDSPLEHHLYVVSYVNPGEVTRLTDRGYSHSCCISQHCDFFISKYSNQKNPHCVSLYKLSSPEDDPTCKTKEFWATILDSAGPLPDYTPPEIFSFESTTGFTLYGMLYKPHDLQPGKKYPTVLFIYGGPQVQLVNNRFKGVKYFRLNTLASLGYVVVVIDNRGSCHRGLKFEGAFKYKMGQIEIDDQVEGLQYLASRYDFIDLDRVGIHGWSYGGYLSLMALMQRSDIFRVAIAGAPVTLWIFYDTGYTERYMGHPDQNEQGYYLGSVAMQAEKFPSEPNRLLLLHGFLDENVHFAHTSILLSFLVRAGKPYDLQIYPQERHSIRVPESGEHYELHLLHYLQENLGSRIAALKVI
The test is described as follows: DPP 8 activity screening (Ala-Pro-AMC fluorescence). As to conditions: N.I. = No Inhibition. Put shortly: (§1)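 Insect-cell baculovirus-expressed human enzymes hydrolyse Ala-Pro-AMC; AMC release monitored kinetically as fluorescence rate (ex 355/em 460 nm). Primary screen at a single concentration (e.g. 20 μg/mL); dose–response fitted to variable-slope sigmoid with bottom/top fixed at 0 and 100.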

A further test has as its target T4, Human DPP 9 (Homo sapiens, UniProt Q86TI2).
T4 construct: made in house; host or cells: insect cells, baculovirus Bac-to-Bac
The experiment in a line: DPP 9 activity screening (Ala-Pro-AMC fluorescence). As to conditions: N.I. = No Inhibition. Put shortly:
as §1

T4 sequence (Q86TI2 whole entry): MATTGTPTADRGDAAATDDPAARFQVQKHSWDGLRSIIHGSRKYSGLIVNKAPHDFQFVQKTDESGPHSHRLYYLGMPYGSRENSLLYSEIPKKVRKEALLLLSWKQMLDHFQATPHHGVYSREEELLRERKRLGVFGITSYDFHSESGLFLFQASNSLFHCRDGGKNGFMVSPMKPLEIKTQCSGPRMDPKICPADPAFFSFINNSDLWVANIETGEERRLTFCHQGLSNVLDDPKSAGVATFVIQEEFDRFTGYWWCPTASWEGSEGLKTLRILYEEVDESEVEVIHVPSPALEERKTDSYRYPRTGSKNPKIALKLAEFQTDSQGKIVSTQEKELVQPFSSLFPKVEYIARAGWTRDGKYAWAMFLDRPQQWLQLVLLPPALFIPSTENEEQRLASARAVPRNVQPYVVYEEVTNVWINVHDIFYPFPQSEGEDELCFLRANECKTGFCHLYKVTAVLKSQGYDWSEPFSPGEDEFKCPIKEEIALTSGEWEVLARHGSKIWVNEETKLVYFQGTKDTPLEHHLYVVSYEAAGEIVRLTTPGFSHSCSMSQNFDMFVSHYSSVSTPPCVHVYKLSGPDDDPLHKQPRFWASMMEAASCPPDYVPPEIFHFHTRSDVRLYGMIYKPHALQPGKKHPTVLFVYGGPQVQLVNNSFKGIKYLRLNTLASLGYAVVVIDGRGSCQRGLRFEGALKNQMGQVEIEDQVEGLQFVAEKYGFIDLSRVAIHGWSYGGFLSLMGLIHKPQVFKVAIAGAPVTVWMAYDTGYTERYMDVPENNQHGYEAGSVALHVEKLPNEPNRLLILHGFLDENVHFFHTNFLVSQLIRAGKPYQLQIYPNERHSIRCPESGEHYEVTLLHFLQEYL

With `CCCCNC(=O)c1csc2c(=O)n(Cc3ccccc3C#N)c(N3CCC[C@@H](N)C3)nc12` [Compound 77, (R)-2-(3-aminopiperidln-1-yl)-N-butyl-3-(2-cyanobenzyl)-4-oxo-3,4-dihydrothieno[3,2-d]pyrimidine-7-carboxamide], the IC50 turned out to be 30 µM in test [1], 45.2 µM on FAP, 0.0111 µM against human DPP IV and 49.4 µM at human DPP 8. Moreover, the “DPP 9 IC50” value on Human DPP 9 was “N.I”.

In the case of `N#Cc1ccccc1Cn1c(N2CCC[C@@H](N)C2)nc2cc(C(=O)N3CCCCC3)sc2c1=O` [Compound 108, (R)-2-((2-(3-aminopiperidin-1-yl)-4-oxo-6-(piperidine-1-carbonyl)thieno-[3,2-d]pyrimidin-3(4H)-yl)methyl)-benzonitrile], the “DPP 7 IC50” value in test [1] is listed as “N.I”. Besides, the half-maximal inhibitory concentration (IC50) amounted to 27 µM at FAP, 0.0118 µM on human DPP IV, 15.1 µM at human DPP 8 and 111 µM at Human DPP 9.

Take `N#Cc1ccccc1Cn1c(N2CCC[C@@H](N)C2)nc2cc(C(=O)NC3CCCCC3)sc2c1=O` [Compound 119, (R)-2-(3-aminopiperidin-1-yl)-3-(2-cyanobenzyl)-N-cyclohexyl-4-oxo-3,4-dihydrothieno[3,2-d]pyrimidine-6-carboxamide]: in test [1], the “DPP 7 IC50” value is listed as “N.I”. In addition, the IC50 turned out to be 113 µM at FAP, 0.0206 µM against human DPP IV and 94 µM against human DPP 8. The “DPP 9 IC50” value at Human DPP 9 is “N.I”.

Regarding `Cc1ccc(CNC(=O)c2csc3c(=O)n(Cc4ccccc4C#N)c(N4CCC[C@@H](N)C4)nc23)cc1` [Compound 64, (R)-2-(3-aminopiperidin-1-yl)-3-(2-cyanobenzyl)-N-(4-methylbenzyl)-4-oxo-3,4-dihydrothieno[3,2-d]-pyrimidine-7-carboxamide], the IC50 in test [1] was 52 µM; against FAP it was 9.38 µM; on human DPP IV it was 0.0332 µM; against human DPP 8, 5.81 µM; against Human DPP 9, 39.7 µM.

In the case of `N#Cc1ccccc1Cn1c(N2CCC[C@@H](N)C2)nc2cc(C(=O)N3CCCC3)sc2c1=O` [Compound 107, (R)-2-((2-(3-aminopiperidin-1-yl)-4-oxo-6-(pyrrolidine-1-carbonyl)thieno-[3,2-d]pyrimidin-3(4H)-yl)methyl)-benzonitrile], the “DPP 7 IC50” value in test [1] is on record as “N.I”. The IC50 against FAP turned out to be 98.6 µM; against human DPP IV, 0.0241 µM; on human DPP 8, 39.7 µM; against Human DPP 9, 122 µM.

With `CNC(=O)c1csc2c(=O)n(Cc3ccccc3C#N)c(N3CCC[C@@H](N)C3)nc12` [Compound 61, (R)-2-(3-aminopiperidin-1-yl)-3-(2-cyanobenzyl)-N-methyl-4-oxo-3,4-dihydrothieno[3,2-d]pyrimidine-7-carboxamide], the “DPP 7 IC50” value in test [1] is recorded as “N.I”. Besides, the 50% inhibitory concentration (IC50) against FAP came out at 30.3 µM; at human DPP IV, 0.0139 µM; against human DPP 8 it was 45.9 µM; on Human DPP 9, 254 µM.

For the compound `COC(=O)c1cc2nc(N3CCC[C@@H](N)C3)n(Cc3ccccc3C#N)c(=O)c2s1` [Compound 38, (R)-methyl 2-(3-aminopiperidin-1-yl)-3-(2-cyanobenzyl)-4-oxo-3,4-dihydrothieno[3,2-d]pyrimidine-6-carboxylate], in test [1], the “DPP 7 IC50” value is on record as “N.I”. The “FAP IC50” value on FAP is listed as “N.I”. Moreover, at human DPP IV, the IC50 is 0.0115 µM. The “DPP 8 IC50” value at human DPP 8 is recorded as “N.I”. On Human DPP 9, the “DPP 9 IC50” value was “N.I”.

For `COC(=O)[C@@H](NC(=O)c1csc2c(=O)n(Cc3ccccc3C#N)c(N3CCC[C@@H](N)C3)nc12)c1ccccc1` [Compound 66, (S)-methyl 2-(2-((R)-3-aminopiperidin-1-yl)-3-(2-cyanobenzyl)-4-oxo-3,4-dihydrothieno[3,2-d]pyrimidine-7-carboxamido)-2-phenylacetate], the “DPP 7 IC50” value in test [1] was “N.I”. The IC50 against FAP was 18.8 µM; at human DPP IV it was 0.0358 µM; against human DPP 8, 14.4 µM; at Human DPP 9, 47.1 µM.

Turning to `N#Cc1ccccc1Cn1c(N2CCC[C@@H](N)C2)nc2c(C#N)csc2c1=O` [Compound 83, (R)-2-(3-aminopiperidin-1-yl)-3-(2-cyanobenzyl)-4-oxo-3,4-dihydrothieno-[3,2-d]pyrimidine-7-carbonitrile], the half-inhibitory concentration (IC50) in test [1] was 38.2 µM; at FAP it was 160 µM; against human DPP IV, 0.0161 µM; against human DPP 8, 317 µM. For the same compound, the “DPP 9 IC50” value at Human DPP 9 is on record as “N.I”.

On to `N#Cc1ccccc1Cn1c(N2CCC[C@@H](N)C2)nc2cc(C(N)=O)sc2c1=O` [Compound 97, (R)-2-(3-aminopiperidin-1-yl)-3-(2-cyanobenzyl)-4-oxo-3,4-dihydrothieno-[3,2-d]pyrimidine-6-carboxamide], for which the “DPP 7 IC50” value in test [1] was “N.I”. At FAP, the “FAP IC50” value is recorded as “N.I”. This compound returned an IC50 against human DPP IV of 0.0204 µM. Also, the “DPP 8 IC50” value on human DPP 8 is “N.I”. On Human DPP 9, the “DPP 9 IC50” value is on record as “N.I”.

For the compound `COC(=O)C1CCN(Cc2csc3c(=O)n(Cc4ccccc4C#N)c(N4CCC[C@@H](N)C4)nc23)CC1` [Compound 54, (R)-methyl 1-((2-(3-aminopiperidin-1-yl)-3-(2-cyanobenzyl)-4-oxo-3,4-dihydrothieno[3,2-d]pyrimidin-7-yl)-methyl)piperidine-4-carboxylate], the IC50 in test [1] was 39.2 µM; at human DPP IV, 0.238 µM. Moreover, on FAP, the “FAP IC50” value was “N.I”. Further, the “DPP 8 IC50” value at human DPP 8 is recorded as “N.I”. Further, on Human DPP 9, the “DPP 9 IC50” value is listed as “N.I”.

For `N#Cc1ccccc1Cn1c(N2CCC[C@@H](N)C2)nc2cc(C(=O)N3CCOCC3)sc2c1=O` [Compound 118, (R)-2-((2-(3-aminopiperidin-1-yl)-6-(morpholine-4-carbonyl)-4-oxothieno-[3,2-d]pyrimidin-3(4H)-yl)methyl)-benzonitrile], in test [1], the “DPP 7 IC50” value was “N.I”. In addition, the concentration for half-maximal inhibition (IC50) against FAP came to 80.2 µM; against human DPP IV, 0.0185 µM; against human DPP 8, 83.6 µM. Further, on Human DPP 9, the “DPP 9 IC50” value is “N.I”.

Take `COC(=O)[C@@H](NC(=O)c1csc2c(=O)n(Cc3ccccc3C#N)c(N3CCC[C@@H](N)C3)nc12)C(C)C` [Compound 59, (S)-methyl 2-(2-((R)-3-aminopiperidin-1-yl)-3-(2-cyanobenzyl)-4-oxo-3,4-dihydrothieno[3,2-d]pyrimidine-7-carboxamido)-3-methylbutanoate]: in test [1], the “DPP 7 IC50” value is on record as “N.I”. For the same compound, the IC50 stood at 49.5 µM at FAP, 0.0266 µM against human DPP IV, 35 µM at human DPP 8 and 187 µM against Human DPP 9.

With `COCCCNC(=O)c1csc2c(=O)n(Cc3ccccc3C#N)c(N3CCC[C@@H](N)C3)nc12` [Compound 75, (R)-2-(3-aminopiperidin-1-yl)-3-(2-cyanobenzyl)-N-(3-methoxypropyl)-4-oxo-3,4-dihydrothieno[3,2-d]pyrimidine-7-carboxamide], the “DPP 7 IC50” value in test [1] is given as “N.I”. For the same compound, the 50% inhibitory concentration (IC50) worked out at 28.3 µM on FAP, 0.00815 µM on human DPP IV, 23 µM at human DPP 8 and 91.7 µM against Human DPP 9.

As to `CC(C)CNC(=O)c1csc2c(=O)n(Cc3ccccc3C#N)c(N3CCC[C@@H](N)C3)nc12` [Compound 79, (R)-2-(3-aminopiperidin-1-yl)-3-(2-cyanobenzyl)-N-isobutyl-4-oxo-3,4-dihydrothieno[3,2-d]pyrimidine-7-carboxamide], the IC50 was found to be 357 µM in test [1]; 40.9 µM against FAP; 0.0151 µM against human DPP IV; 47 µM at human DPP 8; 226 µM at Human DPP 9.

Consider `N#Cc1ccccc1Cn1c(N2CCC[C@@H](N)C2)nc2cc(C(=O)NC3CC3)sc2c1=O` [Compound 40, (R)-2-(3-aminopiperidin-1-yl)-3-(2-cyanobenzyl)-N-cyclopropyl-4-oxo-3,4-dihydrothieno[3,2-d]pyrimidine-6-carboxamide], for which the “DPP 7 IC50” value in test [1] is on record as “N.I”. The values for the IC50 against FAP, at human DPP IV and on Human DPP 9 were 213 µM, 0.0183 µM and 266 µM, respectively. At human DPP 8, the “DPP 8 IC50” value is “N.I”.
